Data reported in article PMC5008373, “Pantoprazole, an FDA-approved proton-pump inhibitor, suppresses colorectal cancer growth by targeting T-cell-originated protein kinase” (Oncotarget, 2016).

Key:
Type in all cases: binding
[1] = target: T1, T-cell-originated protein kinase (TOPK) (Homo sapiens, UniProt Q96KB5); assay: biochemical
T1 construct: gene PBK
T1 sequence (Q96KB5 1-322): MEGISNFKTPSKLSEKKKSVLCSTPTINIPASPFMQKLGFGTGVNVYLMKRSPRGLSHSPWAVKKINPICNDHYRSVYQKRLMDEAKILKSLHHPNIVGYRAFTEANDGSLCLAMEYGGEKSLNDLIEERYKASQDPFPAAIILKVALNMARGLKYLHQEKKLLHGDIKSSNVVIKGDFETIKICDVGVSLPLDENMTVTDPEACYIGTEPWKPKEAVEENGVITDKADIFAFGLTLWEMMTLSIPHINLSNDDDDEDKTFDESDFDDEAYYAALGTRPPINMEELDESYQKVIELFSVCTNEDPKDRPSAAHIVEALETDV

[2] = target: T1, T-cell-originated protein kinase (TOPK); assay: microscale thermophoresis with labeled recombinant TOPK (reference inhibitor); conditions: read-out: Dissociation constant with TOPK / Kd^b
[3] = target: T1, T-cell-originated protein kinase (TOPK); assay: microscale thermophoresis with labeled recombinant TOPK; also in vitro kinase assay (histone H3 phosphorylation); conditions: read-out: Dissociation constant with TOPK / Kd^b
[4] = read-out: Dissociation constant with TOPK / Kd^b

Structure (SMILES): NC(CO)C(=O)NNCc1ccc(O)c(O)c1O (centres unmarked) [Benserazide]
- Kd [1, 4]: 477 ± 19.9 µM

Structure (SMILES): N#Cc1c2nc3ccccc3nc2n2ccc(NC(=O)c3cccs3)cc12 [HI-TOPK-032]
- Kd [2]: 327 ± 62.7 µM

Structure (SMILES): COc1ccnc(C[S+]([O-])c2nc3ccc(OC(F)F)cc3[nH]2)c1OC (centres unmarked) [Pantoprazole]
- Kd [3]: 24.2 ± 2.3 µM

Structure (SMILES): CC(=O)Nc1ccc(OCC(O)CNC(C)C)cc1 (centres unmarked) [Practolol]
- Kd [1, 4]: 226 ± 29.5 µM

Structure (SMILES): O=C(O)c1cc(/N=N/c2ccc(S(=O)(=O)Nc3ccccn3)cc2)ccc1O [Sulfasalazine]
- Kd [1]: 339 ± 7.7 µM
